Results: patent US5130143A, “Use of a low affinity-heparin fraction in conjunction with t-PA for thrombolytic therapy” (The Research Foundation of State University of New York, priority 1988, dated 1992)

Molecular target: T1, t-PA (Homo sapiens, UniProt P00750)
T1 construct: The t-PA purified from human melanoma (Bowes) cell culture; host or cells: Bowes human melanoma cell culture (purified t-PA)
Experiment: Amidolytic plasmin assay: activation of plasminogen by t-PA (S-2251 substrate)
Assay type: biochemical
Conditions: no fibrinogen fragments; 0.09 nM t-PA, 0.42 μM plasminogen, 25° C.
Protocol: The assay defects lysis of the amide bond of plasminogen in determining their "amidolytic plasmin activity."
The ability of unfractionated HMW-heparin to stimulate amidolytic plasmin activity of a mixture of Lys-plasminogen or Glu-plasminogen and t-PA was measured according to the protocol, previously published by the inventors herein in Biochemistry, 25, 4033 (1986) (hereinafter "the Biochemistry Paper").
To a buffered solution of 200 ul of 0.1M Tris-HCl, pH 8.1, 0.1% (V/V) Tween 80, 0.3 mM chromogenic plasmin substrate H-D-Val-Leu-Lys-pNA (S-2251, Kabi, Sweden) was added. To this mixture, HMW-heparin fractions (the Ca and Na salts, respectively) in concentrations ranging from 0 to 25 units/ml and 0.42 μM Glu- or Lys- plasminogen were added. […]
The solutions were incubated in microliter plates at 25° C. The change in absorbance (ΔA) at 405 nm was measured against blanks without t-PA in a Bio-Tek model EL-308 microplate reader.
It should be noted that plasmin activity was actually being measured in this assay and that the plasmin concentration was increasing as a function of time due to the action of the plasminogen activators on plasminogen. Thus, plots of absorbance vs. time are parabolic, whereas plots of absorbance vs. time squared are linear. Therefore, the slopes of plots of absorbance vs. time squared were used as a measure of the rate (VO) of plasmin generation. […]

T1 sequence (P00750 36-562): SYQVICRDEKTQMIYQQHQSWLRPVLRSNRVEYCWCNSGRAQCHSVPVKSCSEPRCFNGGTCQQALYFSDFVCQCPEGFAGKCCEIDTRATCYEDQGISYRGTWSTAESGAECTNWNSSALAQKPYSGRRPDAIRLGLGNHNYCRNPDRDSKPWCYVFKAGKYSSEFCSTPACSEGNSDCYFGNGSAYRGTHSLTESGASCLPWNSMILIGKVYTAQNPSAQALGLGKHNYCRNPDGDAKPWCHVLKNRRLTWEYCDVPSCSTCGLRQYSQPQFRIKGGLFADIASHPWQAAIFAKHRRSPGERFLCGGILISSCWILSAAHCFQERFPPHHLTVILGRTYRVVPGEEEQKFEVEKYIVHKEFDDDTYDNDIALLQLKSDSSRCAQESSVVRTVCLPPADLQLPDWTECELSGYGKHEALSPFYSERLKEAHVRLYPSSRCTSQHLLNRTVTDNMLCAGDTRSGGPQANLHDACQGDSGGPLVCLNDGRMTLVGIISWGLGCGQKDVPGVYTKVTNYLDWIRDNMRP

`[Cl-].[Na+]` [NaCl] was tested, and the “effect on amidolytic plasmin activity (plasmin generation) of t-PA-plasminogen mixture” value was “did not cause a marked decrease”.
